Measured values from patent US12478677B2, “Tunable luminescent organic salts for enhanced imaging and photodynamic therapy” (BOARD OF TRUSTEES OF MICHIGAN STATE UNIVERSITY, priority 2017, dated 2025).
Like-named read-outs stand apart in the source and are kept apart here.

Columns and labels:
[1] = test system: A549 cells; experiment: Viability studies (trypan blue staining and cell counting) with or without IR excitation; format: cell-based, human; conditions: for IC50: linear regression analysis; for Toxicity in words, dark and light: with or without IR (850 nm) excitation; for Concentration at which still non-toxic: cells
Procedure: The cell lines human lung carcinoma (A549), metastatic human melanoma (WM1158) and Vemurafenib-resistant melanoma (Sk-Mel-28-Vem^R) are used. Sk-Mel-28-Vem^R is generated by culturing a parental melanoma cell lines in the presence of 2 μM Vemurafenib for 2 months. Acquired Vemurafenib resistance is defined by >1 log change in IC50 between nonresistant and resistant cell lines. Resistance is maintained through media supplementation with 2 μM Vemurafenib, which is changed every 48 hours. All cells are cultured in DMEM without pyruvate with 10% heat inactivated fetal bovine serum supplemented with glutamine and penicillin/streptomycin, and incubated in 37° C. with 5% CO2.
A549 and WM1158 cells are seeded at a density of 50,000 cells per well in 6-well tissue culture plates. After 24 hours of incubation, media is aspirated and replaced with media containing luminescent dyes at indicated concentrations. Each well is irradiated with an 850 nm LED lamp with an illumination rate of 526 mW/cm^2 for an hour in the incubator, and control cells are left in a dark incubator without irradiation. For studies with Cy7, a 740 nm LED lamp is used instead of an 850 nm, but with a similar illumination flux. Immediately after irradiation, the media is replenished with fresh dye-laced media and allowed to incubate for another 24 hours. […] Viable cell number is determined at 24 and 96 hours using trypan blue staining and a Nexcelom Cellometer Auto T4 cell counter. All assays are done with 3 biological replicates. The fold change in cell proliferation over days of treatment was calculated using the following equation.

[2] = test system: A549 cells; experiment: Luminescent imaging of cells; format: cell-based, human
Procedure: Images are obtained using a Leica DMi8 microscope with a PE4000 LED light source, DFC9000GT camera, and LAS X imaging system. A549 cells are seeded in 3 cm tissue culture plates at a density of 50,000 cells per well in DMEM media containing luminescent organic salts at indicated concentrations. The cells incubate for 2 days at 37° C. with 5% CO2 until the day of imaging. For live cell imaging, the media is aspirated and replaced with fresh dye-free media to reduce background noise. For fixed cell imaging, cells are grown on 0.5 mm coverslips within 3 cm plates. The media is aspirated and the cells are washed with phosphate buffered saline (PBS) before being submerged in cold methanol and incubated at −20° C. for 15 minutes. The cells are then washed with PBS 5 times, and the coverslips are then mounted to slides using DAPI with Fluoromount-G.

[3] = Salt integrity and aggregation in cell media (mass spectrometry, electron microscopy, UV-Vis); format: physicochemical; conditions: high resolution mass spectrometry, electron microscopy, UV-Vis spectroscopy
Excerpt: FIGS. 7A-7C. […] Organic salts were first dissolved in DMSO and then diluted in water, forming nanoparticles. […] Combinations of H- and J-aggregation of organic salts can be seen by blue-shifted peaks (lower wavelength) and red-shifted peaks (higher wavelength), respectively. The nanoparticles with small hard anions redissolve in cell media likely due to sterics. […] This is achieved by cation-anion pairs of luminescent organic salts that can be modulated to be either non-toxic for enhanced imaging, or phototoxic for improved PDT. […] IR polymethine cyanine dyes, which have been used as effective theranostics are described. […] This is thought to occur through a mechanism mitigated by tumor vascularization, increased retention in cancer cells, and mitochondrial depolarization. Once in the cell, they accumulate in the mitochondria and lysosomes, where irradiation induces generation of cytotoxic oxygen species. A strategy is described for preventing or inhibiting salt dissociation in cells: aggregates are formed via introduction of the salt into an aqueous media by a solvent vehicle, forming particles with diameters of about 5 nm in size with no precipitation observed. […] This is confirmed by high resolution mass spectrometry, electron microscopy, and UV-Vis spectroscopy. […] Normalized absorption data are sown in FIGS. 7A, 7B, and 7C. This is likely due to steric effects, where if the counterion radius is too small it is not able to protect the nanoparticle stability. This can be characterized by the volume-averaged effective spherical radius of the counterions, where the cutoff is at about 0.275 nm.

With CCN1C(=CC=C2CCCC(C=CC3=[N+](CC)c4ccc5ccccc5c4C3(C)C)=C2Cl)C(C)(C)c2c1ccc1ccccc21.Fc1c(F)c(F)c([B-](c2c(F)c(F)c(F)c(F)c2F)(c2c(F)c(F)c(F)c(F)c2F)c2c(F)c(F)c(F)c(F)c2F)c(F)c1F [CyTPFB] the IC50 ([1]; A549 cells, 850 nm irradiation, read-out: IC50 850 nm) was 11 µM, the “Phototoxicity with IR excitation, in words” value ([1]; A549 cells, IR (850 nm) excitation) was “non phototoxic to orders of magnitude higher concentrations” and the IC50 ([1]; A549 cells, dark, no irradiation, read-out: IC50 Dark) was 126 µM. The “Fold concentration relative to CyPF6 at which still non-toxic” value ([1]; A549 cells, listed as Cy^+ paired with TPFB^−) was “greater than 75 fold”, the “Toxicity in words, dark and light” value ([1]; A549 cells) was “non-toxic” and the “Toxicity in words, dark and light” value ([1]; A549 cells, listed as Cy^+ paired with TPFB) was “not toxic to cells in the dark and in the light”. The “Toxicity in the dark, in words” value ([1]; A549 cells, without IR excitation) was “deactivates the dark cellular toxicity”, the “Concentration at which still non-toxic” value [1] was 20 µM and the “Concentration at which still non-toxic” value ([1]; listed as Cy^+ paired with TPFB^−) was 126 µM. For the same molecule, the “Cellular localization versus concentration in media, in words” value [2] was “localize inside cells proportionally to the initial introduced concentration in the cellular media” and the “Integrity of salt pairing in cellular environments” value [3] was “maintained in cellular environments”.
